ChEMBL document CHEMBL1201861, “Genomics of Drug Sensitity in Cancer screening data, Wellcome Trust Sanger Institute”

What was measured:
NCI-H1417 = experiment: cells; type: functional, cell-based, Homo sapiens; conditions: Homo sapiens, NCI-H1417;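 note: human NCI-H1417 cells, growth inhibition determined with a cell viability readout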
Description: SANGER: Inhibition of human NCI-H1417 cell growth in a cell viability assay.

BC-3 = experiment: cells; type: functional, cell-based, Homo sapiens; conditions: Homo sapiens, BC-3;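 note: cell viability assay measuring growth inhibition of human BC-3 cells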
Description: SANGER: Inhibition of human BC-3 cell growth in a cell viability assay.

NCI-H2227 = experiment: cells; type: functional, cell-based, Homo sapiens; conditions: Homo sapiens, NCI-H2227;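 note: growth inhibition of the human cell line, read out with a cell viability assay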
Description: SANGER: Inhibition of human NCI-H2227 cell growth in a cell viability assay.

TE-441-T = experiment: cells; type: functional, cell-based, Homo sapiens; conditions: Homo sapiens, TE-441-T
Description: SANGER: Inhibition of human TE-441-T cell growth in a cell viability assay.

NCI-H2107 = experiment: SANGER: Inhibition of human NCI-H2107 cell growth in a cell viability assay.; type: functional, cell-based
CHP-126 = experiment: cells; type: functional, cell-based, Homo sapiens; conditions: Homo sapiens, CHP-126
Description: SANGER: Inhibition of human CHP-126 cell growth in a cell viability assay.

NCI-H1666 = experiment: cells; type: functional, cell-based, Homo sapiens; conditions: Homo sapiens, NCI-H1666;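 note: growth inhibition of the cell line, read out with a cell viability assay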
Description: SANGER: Inhibition of human NCI-H1666 cell growth in a cell viability assay.

PANC-03-27 = experiment: cells; type: functional, cell-based, Homo sapiens; conditions: Homo sapiens, PANC-03-27
Description: SANGER: Inhibition of human PANC-03-27 cell growth in a cell viability assay.

H9 = experiment: cells; type: functional, cell-based, Homo sapiens; conditions: Homo sapiens, H9
Description: SANGER: Inhibition of human H9 cell growth in a cell viability assay.

CHL-1 = experiment: cells; type: functional, cell-based, Homo sapiens; conditions: Homo sapiens, CHL-1;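 note: cell growth inhibition, read out with a cell viability assay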
Description: SANGER: Inhibition of human CHL-1 cell growth in a cell viability assay.

VM-CUB-1 = experiment: cells; type: functional, cell-based, Homo sapiens; conditions: Homo sapiens, VM-CUB-1;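 note: cell viability assay measuring growth inhibition of the human VM-CUB-1 cell line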
Description: SANGER: Inhibition of human VM-CUB-1 cell growth in a cell viability assay.

NCI-H1793 = experiment: cells; type: functional, cell-based, Homo sapiens; conditions: Homo sapiens, NCI-H1793;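 note: cell growth inhibition, read out by a cell viability assay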
Description: SANGER: Inhibition of human NCI-H1793 cell growth in a cell viability assay.

ASPC1 = experiment: cells; type: functional, cell-based, Homo sapiens; conditions: Homo sapiens, ASPC1;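 note: growth inhibition of AsPC-1 cells, read out with a cell viability assay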
Description: SANGER: Inhibition of human AsPC-1 cell growth in a cell viability assay.

HOS = experiment: cells; type: functional, cell-based, Homo sapiens; conditions: Homo sapiens, HOS;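 note: growth inhibition of human HOS cells, read out with a cell viability assay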
Description: SANGER: Inhibition of human HOS cell growth in a cell viability assay.

HT1197 = experiment: cells; type: functional, cell-based, Homo sapiens, HT-1197; conditions: Homo sapiens, HT1197
Description: SANGER: Inhibition of human HT-1197 cell growth in a cell viability assay.

SW900 = experiment: cells; type: functional, cell-based, Homo sapiens; conditions: Homo sapiens, SW900;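 note: IC50 is the concentration that inhibits SW900 cell growth, measured by a cell viability assay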
Description: SANGER: Inhibition of human SW900 cell growth in a cell viability assay.

ZR-75-30 = experiment: cells; type: functional, cell-based, Homo sapiens; conditions: Homo sapiens, ZR-75-30;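 note: growth inhibition of ZR-75-30 cells, measured with a cell viability readout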
Description: SANGER: Inhibition of human ZR-75-30 cell growth in a cell viability assay.

HEC-1 = experiment: cells; type: functional, cell-based, Homo sapiens; conditions: Homo sapiens, HEC-1;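 note: growth inhibition of the cell line, read out with a cell viability assay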
Description: SANGER: Inhibition of human HEC-1 cell growth in a cell viability assay.

SK-MEL-30 = experiment: cells; type: functional, cell-based, Homo sapiens; conditions: Homo sapiens, SK-MEL-30;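 note: growth inhibition of SK-MEL-30 cells, determined with a cell viability assay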
Description: SANGER: Inhibition of human SK-MEL-30 cell growth in a cell viability assay.

PFSK-1 = experiment: cells; type: functional, cell-based, Homo sapiens; conditions: Homo sapiens, PFSK-1;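 note: cell viability assay measuring how strongly compounds suppress growth of human PFSK-1 cells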
Description: SANGER: Inhibition of human PFSK-1 cell growth in a cell viability assay.

CAL-27 = experiment: cells; type: functional, cell-based, Homo sapiens; conditions: Homo sapiens, CAL-27;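 note: Viability-based readout, IC50 reflecting inhibition of CAL-27 cell growth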
Description: SANGER: Inhibition of human CAL-27 cell growth in a cell viability assay.

HSC-2 = experiment: cells; type: functional, cell-based, Homo sapiens; conditions: Homo sapiens, HSC-2;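 note: growth inhibition of human HSC-2 cells, read out by a cell viability assay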
Description: SANGER: Inhibition of human HSC-2 cell growth in a cell viability assay.

KYSE-180 = experiment: cells; type: functional, cell-based, Homo sapiens; conditions: Homo sapiens, KYSE-180;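 note: growth inhibition of KYSE-180 cells, read out with a cell viability assay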
Description: SANGER: Inhibition of human KYSE-180 cell growth in a cell viability assay.

SK-MEL-28 = experiment: cells; type: functional, cell-based, Homo sapiens; conditions: Homo sapiens, SK-MEL-28;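 note: growth inhibition of human SK-MEL-28 cells, read out with a cell viability assay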
Description: SANGER: Inhibition of human SK-MEL-28 cell growth in a cell viability assay.

NCI-H2228 = experiment: cells; type: functional, cell-based, Homo sapiens; conditions: Homo sapiens, NCI-H2228;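 note: growth inhibition of human NCI-H2228 cells, read out by a cell viability assay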
Description: SANGER: Inhibition of human NCI-H2228 cell growth in a cell viability assay.

DU-145 = experiment: cells; type: functional, cell-based, Homo sapiens; conditions: Homo sapiens, DU-145
Description: SANGER: Inhibition of human DU-145 cell growth in a cell viability assay.

HT-29 = experiment: cells; type: functional, cell-based, Homo sapiens; conditions: Homo sapiens, HT-29;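 note: growth inhibition of human HT-29 cells, read out by a cell viability assay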
Description: SANGER: Inhibition of human HT-29 cell growth in a cell viability assay.

HLE = experiment: cells; type: functional, cell-based, Homo sapiens; conditions: Homo sapiens, HLE;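 note: growth inhibition of human HLE cells, read out by a cell viability assay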
Description: SANGER: Inhibition of human HLE cell growth in a cell viability assay.

LU-135 = experiment: cells; type: functional, cell-based, Homo sapiens; conditions: Homo sapiens, LU-135
Description: SANGER: Inhibition of human LU-135 cell growth in a cell viability assay.

TGBC11TKB = experiment: cells; type: functional, cell-based, Homo sapiens; conditions: Homo sapiens, TGBC11TKB;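 note: growth inhibition of human TGBC11TKB cells, measured by a cell viability assay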
Description: SANGER: Inhibition of human TGBC11TKB cell growth in a cell viability assay.

BHT-101 = experiment: cells; type: functional, cell-based, Homo sapiens; conditions: Homo sapiens, BHT-101
Description: SANGER: Inhibition of human BHT-101 cell growth in a cell viability assay.

A-375 = experiment: cells; type: functional, cell-based, Homo sapiens; conditions: Homo sapiens, A-375;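 note: growth inhibition of A375 cells, read out with a cell viability assay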
Description: SANGER: Inhibition of human A375 cell growth in a cell viability assay.

NCI-H1755 = experiment: cells; type: functional, cell-based, Homo sapiens; conditions: Homo sapiens, NCI-H1755;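 note: cell viability readout used to measure growth inhibition of NCI-H1755 cells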
Description: SANGER: Inhibition of human NCI-H1755 cell growth in a cell viability assay.

PC-3 = experiment: cells; type: functional, cell-based, Homo sapiens; conditions: Homo sapiens, PC-3;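 note: cell viability assay measuring growth inhibition of PC-3 cells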
Description: SANGER: Inhibition of human PC-3 cell growth in a cell viability assay.

SW1463 = experiment: cells; type: functional, cell-based, Homo sapiens; conditions: Homo sapiens, SW1463;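 note: growth inhibition of SW1463 cells, determined with a cell viability assay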
Description: SANGER: Inhibition of human SW1463 cell growth in a cell viability assay.

CAMA-1 = experiment: cells; type: functional, cell-based, Homo sapiens; conditions: Homo sapiens, CAMA-1;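 note: growth inhibition of CAMA-1 cells, read out with a cell viability assay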
Description: SANGER: Inhibition of human CAMA-1 cell growth in a cell viability assay.

DMS-53 = experiment: cells; type: functional, cell-based, Homo sapiens; conditions: Homo sapiens, DMS-53;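 note: cell viability assay measuring growth inhibition of human DMS-53 cells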
Description: SANGER: Inhibition of human DMS-53 cell growth in a cell viability assay.

MES-SA = experiment: cells; type: functional, cell-based, Homo sapiens; conditions: Homo sapiens, MES-SA;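 note: growth inhibition of human MES-SA cells, read out with a cell viability assay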
Description: SANGER: Inhibition of human MES-SA cell growth in a cell viability assay.

EW-7 = experiment: SANGER: Inhibition of human EW-7 cell growth in a cell viability assay.; type: functional, cell-based; conditions: Homo sapiens, EW-7

| Compound | IC50 (CHL-1) [µM] | IC50 (NCI-H1793) [µM] | IC50 (ASPC1) [µM] | IC50 (HOS) [µM] | IC50 (HT1197) [µM] | IC50 (ZR-75-30) [µM] | IC50 (HEC-1) [µM] | IC50 (SK-MEL-30) [µM] | IC50 (PFSK-1) [µM] | IC50 (CAL-27) [µM] | IC50 (HSC-2) [µM] | IC50 (KYSE-180) [µM] | IC50 (NCI-H2228) [µM] | IC50 (DU-145) [µM] | IC50 (HT-29) [µM] | IC50 (HLE) [µM] | IC50 (BHT-101) [µM] | IC50 (NCI-H1755) [µM] | IC50 (PC-3) [µM] | IC50 (SW1463) [µM] | also measured |
| --- | --- | --- | --- | --- | --- | --- | --- | --- | --- | --- | --- | --- | --- | --- | --- | --- | --- | --- | --- | --- | --- |
| COc1cc(N2CCN(C)CC2)ccc1Nc1ncc2c(n1)N(C)c1ccccc1C(=O)N2C | – | – | – | – | – | – | – | – | – | – | – | – | – | – | – | – | – | – | – | – | IC50 (NCI-H1417): > 8 µM; IC50 (BC-3): > 8 µM; IC50 (NCI-H2227): > 8 µM; IC50 (TE-441-T): > 8 µM; IC50 (NCI-H2107): > 8 µM; IC50 (CHP-126): > 8 µM |
| COc1cc2c(Nc3ccc(NC(=O)c4ccccc4)cc3)ncnc2cc1OCCCN1CCOCC1 | 3.42 | > 4 | > 4 | > 4 | > 4 | > 4 | > 4 | > 4 | > 4 | > 4 | > 4 | > 4 | > 4 | > 4 | > 4 | > 4 | > 4 | > 4 | > 4 | > 4 | IC50 (NCI-H1666): > 4 µM; IC50 (PANC-03-27): > 4 µM; IC50 (H9): 0.93 µM; IC50 (VM-CUB-1): 2.63 µM; IC50 (SW900): > 4 µM; IC50 (SK-MEL-28): > 4 µM; IC50 (LU-135): 2.66 µM; IC50 (TGBC11TKB): > 4 µM; IC50 (A-375): 3.85 µM; IC50 (CAMA-1): > 4 µM |
| CC(C)c1ccccc1Cc1cc(C(=O)Nc2ccc(S(=O)(=O)c3ccccc3C(C)(C)C)cc2)c(O)c(O)c1O | 0.0119 | 0.745 | 0.973 | 0.0847 | 5.95 | 1.42 | 0.0814 | 0.038 | 0.177 | 0.136 | 0.664 | 0.185 | 0.662 | 0.0521 | 1.46 | 0.121 | 0.0218 | 1.62 | 0.715 | 64.8 | IC50 (NCI-H1666): 0.378 µM; IC50 (PANC-03-27): 0.474 µM; IC50 (DMS-53): 1.32 µM; IC50 (MES-SA): 1.11 µM; IC50 (SW900): 2.77 µM; IC50 (SK-MEL-28): 1.39 µM; IC50 (A-375): 0.0888 µM; IC50 (EW-7): 0.167 µM; IC50 (CAMA-1): 0.661 µM |
| CC(C)CCN1c2nc(Nc3cc(F)c(O)c(F)c3)ncc2N(C)C(=O)C1C (stereo unspecified) | 1.96 | > 5 | > 5 | 4.46 | > 5 | > 5 | > 5 | > 5 | > 5 | > 5 | > 5 | > 5 | > 5 | 2.11 | > 5 | > 5 | 4.11 | > 5 | 4.95 | > 5 | IC50 (NCI-H1666): > 5 µM; IC50 (PANC-03-27): 4.3 µM; IC50 (H9): 0.0602 µM; IC50 (VM-CUB-1): > 5 µM; IC50 (SW900): > 5 µM; IC50 (SK-MEL-28): > 5 µM; IC50 (LU-135): > 5 µM; IC50 (TGBC11TKB): > 5 µM; IC50 (A-375): 4.05 µM; IC50 (CAMA-1): > 5 µM |
| C#Cc1cccc(Nc2ncnc3cc(OCCOC)c(OCCOC)cc23)c1 [ERLOTINIB] | – | – | – | – | – | – | – | – | – | – | – | – | – | – | – | – | – | – | – | – | IC50 (NCI-H1417): > 2 µM; IC50 (BC-3): > 2 µM; IC50 (NCI-H2227): > 2 µM; IC50 (TE-441-T): > 2 µM; IC50 (NCI-H2107): > 2 µM; IC50 (CHP-126): > 2 µM |
| COc1cc2ncn(-c3cc(OCc4ccccc4S(C)(=O)=O)c(C#N)s3)c2cc1OC [GSK-319347A] | – | – | – | – | – | – | – | – | – | – | – | – | – | – | – | – | – | – | – | – | IC50 (NCI-H1417): > 5 µM; IC50 (BC-3): > 5 µM; IC50 (NCI-H2227): > 5 µM; IC50 (TE-441-T): > 5 µM; IC50 (CHP-126): > 5 µM |
| Nc1cccc2c1CN(C1CCC(=O)NC1=O)C2=O (stereo unspecified) [LENALIDOMIDE] | > 5 | > 5 | > 5 | > 5 | > 5 | > 5 | > 5 | > 5 | > 5 | > 5 | > 5 | > 5 | > 5 | > 5 | > 5 | > 5 | > 5 | > 5 | > 5 | > 5 | IC50 (NCI-H1666): > 5 µM; IC50 (PANC-03-27): > 5 µM; IC50 (H9): > 5 µM; IC50 (VM-CUB-1): > 5 µM; IC50 (SW900): > 5 µM; IC50 (SK-MEL-28): > 5 µM; IC50 (LU-135): > 5 µM; IC50 (TGBC11TKB): > 5 µM; IC50 (A-375): > 5 µM; IC50 (CAMA-1): > 5 µM |
| CN(C)C(=N)NC(=N)N [METFORMIN] | 19500 | 18500 | 5370 | > 20000 | > 20000 | 14900 | 16200 | > 20000 | > 20000 | > 20000 | 12100 | 9060 | > 20000 | 838 | > 20000 | 9860 | 6420 | > 20000 | > 20000 | > 20000 | IC50 (H9): 7140 µM; IC50 (SW900): 19300 µM; IC50 (TGBC11TKB): > 20000 µM; IC50 (CAMA-1): 11000 µM |
| CC1(C)CNc2cc(NC(=O)c3cccnc3NCc3ccncc3)ccc21 [MOTESANIB] | > 2 | > 2 | > 2 | > 2 | > 2 | > 2 | > 2 | > 2 | > 2 | > 2 | > 2 | > 2 | > 2 | 0.469 | > 2 | > 2 | > 2 | > 2 | > 2 | > 2 | IC50 (NCI-H1666): > 2 µM; IC50 (PANC-03-27): > 2 µM; IC50 (H9): > 2 µM; IC50 (VM-CUB-1): > 2 µM; IC50 (SW900): > 2 µM; IC50 (SK-MEL-28): > 2 µM; IC50 (LU-135): > 2 µM; IC50 (TGBC11TKB): > 2 µM; IC50 (A-375): > 2 µM; IC50 (CAMA-1): > 2 µM |
| CC[C@H](CO)Nc1nc(NCc2ccccc2)c2ncn(C(C)C)c2n1 [SELICICLIB] | – | – | – | – | – | – | – | – | – | – | – | – | – | – | – | – | – | – | – | – | IC50 (NCI-H1417): > 16 µM; IC50 (BC-3): > 16 µM; IC50 (NCI-H2227): > 16 µM; IC50 (TE-441-T): > 16 µM; IC50 (NCI-H2107): > 16 µM; IC50 (CHP-126): > 16 µM |
| Cn1cnc2c(F)c(Nc3ccc(Br)cc3Cl)c(C(=O)NOCCO)cc21 [SELUMETINIB] | > 4 | > 4 | 0.324 | > 4 | > 4 | > 4 | > 4 | 0.782 | > 4 | 3.06 | > 4 | > 4 | > 4 | > 4 | 0.873 | > 4 | 0.107 | > 4 | > 4 | > 4 | IC50 (PANC-03-27): > 4 µM; IC50 (H9): 0.0229 µM; IC50 (VM-CUB-1): 3.97 µM; IC50 (LU-135): > 4 µM; IC50 (TGBC11TKB): > 4 µM; IC50 (CAMA-1): > 4 µM |
| CS(=O)(=O)c1ccc(C(=O)Nc2ccc(Cl)c(-c3ccccn3)c2)c(Cl)c1 [VISMODEGIB] | > 10 | > 10 | > 10 | > 10 | > 10 | > 10 | > 10 | > 10 | > 10 | > 10 | > 10 | > 10 | > 10 | > 10 | > 10 | > 10 | > 10 | > 10 | > 10 | > 10 | IC50 (NCI-H1666): > 10 µM; IC50 (PANC-03-27): > 10 µM; IC50 (VM-CUB-1): > 10 µM; IC50 (SW900): > 10 µM; IC50 (SK-MEL-28): > 10 µM; IC50 (LU-135): > 10 µM; IC50 (TGBC11TKB): > 10 µM; IC50 (A-375): > 10 µM; IC50 (CAMA-1): > 10 µM |
